“Also recorded” adds a separate entry of the source. Like-named read-outs stand apart in the source and are kept apart here.
Legend:
[1] = tested on: dysplastic mastodynia; details: women with dysplastic mastodynia; cited from earlier work
[2] = tested on: breast tissue from a female rat on an iodine deficient diet; assay: Iodine replacement therapy in iodine deficient rats, morphology of breast tissue; type: in vivo
Excerpt: Studies on rats have included iodine replacement therapy in animals made iodine deficient by a Remington iodine-free diet.
The first iodine product used in the reversal experiment was sodium iodide.
FIG. 1 is a photomicrograph of the breast tissue of a human.
Biological Trace Element Research, Volume 5, 1983, 399-412. The material disclosed in these articles is incorporated herein by reference.
This deficiency can be obtained either through the use of an iodine deficient diet and/or through perchlorate treatment.

[3] = tested on: breast tissue from a female rat on an iodine deficient diet; details: Remington iodine-free diet; iodide salts in food, normal and excessive levels; cited from earlier work
[4] = tested on: breast cancer; assay: Example 5: Incidence of breast cancer in women treated with elemental iodine; type: in vivo, human (women); details: comparison with published series
Excerpt: The incidence of breast cancer in women treated with elemental iodine was compared with other published results, namely the results as published by the Ontario Cancer Research, and results published by Spratt.

[5] = tested on: breast estrogen receptor; assay: Breast estrogen receptor activity and iodine; parameters: species or system rat
Excerpt: The biochemical pathway seems to be an intracellular attraction by iodine for estrogen receptors. […] Thus, cell metabolism is altered when there is "inadequate" iodine present.
A characteristic of breast cancer is the change in response to estrogen and estrogen receptor variability.

[6] = tested on: DMBA-induced mammary tumors; assay: Dimethylbenzanthracene studies: mean tumor volume in DMBA treated rats; type: in vivo, Sprague-Dawley virgin female rats; details: for Mean Tumor Volume, Exp. / Mean Tumor Volume, Week 10 / Mean Tumor Volume, Week 12 / Mean Tumor Volume, Week 14 / Mean Tumor Volume, Week 16 / Mean Tumor Volume, Week 18 / Mean Tumor Volume, Week 20 / Mean Tumor Volume, Week 22: DMBA treated rats, in mm³ (unit assumed)
Procedure: After adequate orientation of 48 hours, 80 Sprague-Dawley virgin female rats (A.A.I., PA) of 100-124 grams and approximately 37 days old, were divided randomly into eight groups each containing 10 rats. The animals were identified according to their phase, group, and rat numbers. The eight groups were labelled as Groups, IA1, IA2, IB1, IB2, IIA1, IIA2, IIB1, and IIB2. Each rat was weighed and marked for identification. Ear identification were as follows:
Group I was initially fed a normal diet and provided with double distilled drinking water (Ionics and IWT). Group II was initially fed a Remington iodine-deficient diet (Teklad, WI) during which they received double distilled drinking water.
At the end of fourteen days, and at 50-56 days old, groups I and II were divided into groups A and B. Groups IA and IIA were treated with 15 mg 7,12 Dimethylbenzanthracene (Eastman Kodak, NY) dissolved in 1 ml sesame oil by gavage. Groups IB and IIB were given a sham feeding of 1 ml of sesame oil at this time also. Only 10 rats a day were given this treatment. For the first twelve hours after treatment, the rats were housed in the fume hood and then taken to the Animal House where they were placed in the same room as groups IB and IIB. The rats in groups IA and IIA continued to be fed a normal diet and iodine-deficient diet, respectively. Groups IB and IIB also continued to receive their respective diets.
The following phases received iodine replacement therapy at these times:
Phase 1--at time of initial feeding of Remington diet
Phase 2--at time of DMBA pulse
Phase 3--at 10 days after DMBA treatment
Groups IA1, IB1, IIA1, and IIB1 received 2.67 ml/1000 ml dilution of a 0.3 mg/ml "mother" iodine concentrate for the rest of the experiment. The technique for making the iodine solution was as follows:
4) A second container was used to measure 2.67 ml of concentrate to 1000 ml DD H2 O. This dilution was then used as drinking water for the animals.
This daily dosage corresponds to the rats receiving 0.07-0.09 mg per kilogram body weight. The other groups continued to receive double distilled drinking water. Thus, the groups were arranged in the following order:
Palpations of the breasts were performed twice a week for the first 30 days after pulse DMBA was administered. The masses, if any, were drawn, measured by caliper, described as to consistency and freedom of motion, and all observations were recorded. After 30 days, the above observations were taken (including framing of tumor if larger than 5 mm) every 2 days and recorded.
Group 1, which was initially fed a normal diet, and Group 2 which was initially fed a Remington iodine deficient diet. Within the two groups are four subgroups, phases 1, 2 and 3, and a control. Phase 1 received iodine replacement therapy at the time of the initial feeding of either the Remington diet or the normal diet. Phase 2 received iodine replacement therapy at the time of DMBA treatment. Phase 3 received iodine replacement therapy 10 days after DMBA treatment.
*Volumes were calculated using the formula 4/3 ((L + W) .div. 2)
All measurements were recorded in centimeters designating the greatest

[7] = tested on: endometriosis; assay: Example 6: Treatment of endometriosis with iodine; type: in vivo, human
Excerpt: An effective dose of elemental iodinte (I2) to cause such a subsidence of nodularity is about 1 to 20 milligrams per day. A daily dosage of elemental iodine for the treatment of endometriosis of about 3 milligrams to about 6 milligrams is also useful. The daily dosage can be administered in an aqueous solution containing about 0.30 milligrams of elemental iodine per millilitre of solution.
Two patients, both with a diagnosis of endometriosis and both treated with birth control pills previously with little result, were treated with diatomic iodine for 10 and 18 months, respectively.

[8] = tested on: DMBA-induced mammary gland neoplasia; assay: Example 4: Iodine treatment of induced breast tumors in rats; type: in vivo, rat
Excerpt: DMBA, a carcinogen, causes mammary gland neoplasia in rats. If these tumors contain breast peroxidase, tney respond to iodine and estrogen treatment. However, as the tumors become less responsive to iodine (hormone independent), breast peroxidase is found to be lacking.

[9] = tested on: fibrocystic disease; details: human, in vivo; cited from earlier work
[10] = tested on: breast tissue from a female rat on an iodine deficient diet; assay: Carcinogen added to iodine deficient rat model (FIG. 6); type: in vivo; details: iodine deficient diet (FIG. 6)
Excerpt: This finding is supportive of the inventors' contention that fibrocystic disease enhances the risk of breast cancer causing sensitization of the breast tissue to various stimuli, including carcinogens. This sensitization process may explain the increased incidence of breast cancer in women in areas of deficient iodine intake, reported by Moosa et al. in "Thyroid Status and Breast Cancer", Royal College of Surgeons, England, 53, 1975.

[11] = Group I, Normal Diet, Iodine Phase I
[12] = Group I, Normal Diet, Iodine Phase II
[13] = Group I, Normal Diet, Iodine Phase III
[14] = Group II, ID (iodine-deficient) Diet, Iodine Phase I
[15] = Group II, ID (iodine-deficient) Diet, Iodine Phase II
[16] = Group II, ID (iodine-deficient) Diet, Iodine Phase III

Q: With [I-].[K+] [potassium iodide, reference compound] as the compound, how does the improvement rate [1] read?
A: 71%

Q: And the “reversal of pathological changes / tissue morphology of rat breast after iodine replacement” value [2]?
A: only minimal success

Q: Which “breast dysplasia after iodine replacement” value [3] does the source give for [I-].[Na+] [sodium iodide, reference compound] here?
A: the breast dysplasia appeared to abate with a partial subsidence of epithelial hyperplasia and a loss of cystic spaces but with a continuation of the fibrosis of the syndrome

Q: And the “reversal of pathological changes / tissue morphology of rat breast after iodine replacement” value [2]?
A: reversal of the pathological changes to a degree with the partial subsidence of cyst formation, epithelial hyperplasia and fibrosis. The interacinar fibrosis remained

Q: What about the “reversal of pathological changes / tissue morphology of rat breast after iodine replacement” value ([2]; listed as sodium iodide (NaI)) of the same compound?
A: only minimal success

Q: And the “reversal of pathological changes / tissue morphology of rat breast after iodine replacement” value ([2]; listed as sodium iodine)?
A: The epithelial hyperplasia regressed and the cystic spaces disappeared, but the fibrous tissue remained

Q: With II [elemental iodine, diatomic iodine] as the compound, how does the “incidence of breast cancer versus women not so treated” value [4] read?
A: less than the incidence of breast cancer in women who had not been so treated

Q: What about the “breast estrogen receptor activities after iodine replacement” value ([5]; iodine deficiency) of the same compound?
A: disappears upon iodine replacement

Q: What about the “role in estrogen receptor function” value ([5]; rats) of the same compound?
A: necessary for normal estrogen receptor function in rats

Q: What about the “Mean Tumor Volume, Exp.” value [6, 11] of the same compound?
A: 320.524

Q: What about the “Mean Tumor Volume, Week 10” value [6, 11] of the same compound?
A: 15.191

Q: And the “Mean Tumor Volume, Week 12” value [6, 11]?
A: 53.565

Q: And the “Mean Tumor Volume, Week 14” value [6, 11]?
A: 67.739

Q: What about the “Mean Tumor Volume, Week 16” value [6, 11] of the same compound?
A: 97.979

Q: And the “Mean Tumor Volume, Week 18” value [6, 11]?
A: 136.405

Q: What about the “Mean Tumor Volume, Week 20” value [6, 11] of the same compound?
A: 155.904

Q: What about the “Mean Tumor Volume, Week 22” value [6, 11] of the same compound?
A: 214.962

Q: What about the “Mean Tumor Volume, Exp.” value [6, 12] of the same compound?
A: 534.001

Q: And the “Mean Tumor Volume, Week 10” value [6, 12]?
A: 7.603

Q: What about the “Mean Tumor Volume, Week 12” value [6, 12] of the same compound?
A: 57.853

Q: What about the “Mean Tumor Volume, Week 14” value [6, 12] of the same compound?
A: 106.887

Q: What about the “Mean Tumor Volume, Week 16” value [6, 12] of the same compound?
A: 140.751

Q: What about the “Mean Tumor Volume, Week 18” value [6, 12] of the same compound?
A: 216.033

Q: And the “Mean Tumor Volume, Week 20” value [6, 12]?
A: 247.025

Q: What about the “Mean Tumor Volume, Week 22” value [6, 12] of the same compound?
A: 320.468

Q: And the “Mean Tumor Volume, Exp.” value [6, 13]?
A: 392.61

Q: What about the “Mean Tumor Volume, Week 10” value [6, 13] of the same compound?
A: 6.686

Q: And the “Mean Tumor Volume, Week 12” value [6, 13]?
A: 24.079

Q: What about the “Mean Tumor Volume, Week 14” value [6, 13] of the same compound?
A: 75.421

Q: And the “Mean Tumor Volume, Week 16” value [6, 13]?
A: 90.319

Q: And the “Mean Tumor Volume, Week 18” value [6, 13]?
A: 127.529

Q: What about the “Mean Tumor Volume, Week 20” value [6, 13] of the same compound?
A: 184.717

Q: And the “Mean Tumor Volume, Week 22” value [6, 13]?
A: 319.229

Q: What about the “Mean Tumor Volume, Exp.” value [6, 14] of the same compound?
A: 337.516

Q: What about the “Mean Tumor Volume, Week 10” value [6, 14] of the same compound?
A: 4.048

Q: And the “Mean Tumor Volume, Week 12” value [6, 14]?
A: 23.367

Q: And the “Mean Tumor Volume, Week 14” value [6, 14]?
A: 65.244

Q: And the “Mean Tumor Volume, Week 16” value [6, 14]?
A: 119.156

Q: What about the “Mean Tumor Volume, Week 18” value [6, 14] of the same compound?
A: 155.189

Q: And the “Mean Tumor Volume, Week 20” value [6, 14]?
A: 174.49

Q: And the “Mean Tumor Volume, Week 22” value [6, 14]?
A: 238.883

Q: And the “Mean Tumor Volume, Exp.” value [6, 15]?
A: 613.044

Q: And the “Mean Tumor Volume, Week 10” value [6, 15]?
A: 0.216

Q: And the “Mean Tumor Volume, Week 12” value [6, 15]?
A: 54.934

Q: What about the “Mean Tumor Volume, Week 14” value [6, 15] of the same compound?
A: 111.962

Q: What about the “Mean Tumor Volume, Week 16” value [6, 15] of the same compound?
A: 168.475

Q: And the “Mean Tumor Volume, Week 18” value [6, 15]?
A: 269.008

Q: What about the “Mean Tumor Volume, Week 20” value [6, 15] of the same compound?
A: 401.774

Q: What about the “Mean Tumor Volume, Week 22” value [6, 15] of the same compound?
A: 519.122

Q: And the “Mean Tumor Volume, Exp.” value [6, 16]?
A: 500.435

Q: And the “Mean Tumor Volume, Week 10” value [6, 16]?
A: 5.816

Q: And the “Mean Tumor Volume, Week 12” value [6, 16]?
A: 36.68

Q: What about the “Mean Tumor Volume, Week 14” value [6, 16] of the same compound?
A: 81.81

Q: And the “Mean Tumor Volume, Week 16” value [6, 16]?
A: 177.888

Q: And the “Mean Tumor Volume, Week 18” value [6, 16]?
A: 203.824

Q: And the “Mean Tumor Volume, Week 20” value [6, 16]?
A: 356.807

Q: And the “Mean Tumor Volume, Week 22” value [6, 16]?
A: 393.328

Q: What about the “mean tumor volume, in words” value ([6]; pretreatment before DMBA, versus nontreated controls) of the same compound?
A: reduction of mean tumor volume as compared to the nontreated controls; also recorded: reduced the mean tumor volume in the DMBA treated rats

Q: And the “nodularity of pelvic peritoneum” value ([7]; about 1 to 20 milligrams per day)?
A: subsidence of the nodularity of the patient's pelvic peritoneum

Q: And the “overall response to iodine treatment, series of patients” value ([7]; no other medication during trial therapy)?
A: This series of patients has responded

Q: What about the “effect of stopping medication” value ([7]; third patient) of the same compound?
A: asymptomatic for two cycles, and then their pain returned

Q: What about the “pelvic pain and nodularity on treatment” value ([7]; third patient) of the same compound?
A: within two cycles, with complete relief of pelvic pain and improvement in the pelvic nodularity on rectal examination

Q: What about the “cyclic lower abdominal pain” value ([7]; three patients treated for fibrocystic breast dysplasia) of the same compound?
A: coincident dramatic decrease in their cyclic lower abdominal pain

Q: And the “effect of restarting medication” value ([7]; two patients)?
A: The subjective symptoms and physical findings again improved within one cycle

Q: And the “effect of stopping medication” value ([7]; two patients)?
A: within one cycle, they had severe pain again, with increasing nodularity of the pelvic peritoneum on rectal examination

Q: And the pain on treatment ([7]; two patients, 10 and 18 months)?
A: complete amelioration of their pain within one cycle of starting the medication

Q: And the tumor response ([8]; about 0.5 mg per 100 gm body weight, orally or intraperitoneally, preliminary)?
A: more response to both diatomic iodine and estrogen

Q: With C#C[C@]1(O)CC[C@H]2[C@@H]3CCC4=Cc5oncc5C[C@]4(C)[C@H]3CC[C@@]21C [danazol] as the compound, how does the “side effects in treatment of mammary dysplasia” value [9] read?
A: massive side effects

Q: Which “effect on tumorigenesis and iodide therapy” value ([8]; peroxidase-blocking agent) does the source give for [O-][Cl+3]([O-])([O-])O [perchlorate, reference compound] here?
A: increases the tumorigenesis and the effectiveness of iodide therapy

Q: With Cc1c2ccccc2c(C)c2c1ccc1ccccc12 [dimethyl benzanthracene, 7,12 Dimethylbenzanthracene] as the compound, how does the “progression of fibrocystic dysplasia” value [10] read?
A: progression from the benign state of fibrocystic dysplasia to overt malignancy

— patent US6019970A, “Treatment of iodine deficiency diseases” (priority 1997, dated 2000)
